Data reported in article PMC11513920, “Building Metabolically Stable and Potent Anti-HIV Thioether-Lipid Analogues of Tenofovir Exalidex: A thorough Pharmacological Analysis” (Journal of Medicinal Chemistry, 2024).
Several values for one entry are separate records, joined by “and”; a condition that tells them apart may be missing. Equal values may be shown once. Read-outs that look alike come from different tables or passages of the source.

Key:
[1] = Cellular cytotoxicity (cell viability, CellTiter 96 or resazurin); conditions: human, CC50, HEK293T cells, compounds formulated with HSA (5:1)
Method: Second, HIV IC50 and cellular CC50 were determined with a pseudoviral, whole (HEK293T) cell, nonreplicative HIV assay, using the HIV-1 subtype C strain MJ4 (refer to Experimental Methods). To account for the unique amphiphilic properties of TXL and the novel HTP-based prodrugs, all compounds were formulated in a human serum albumin (HSA) solution (5:1 drug:protein).
Assessment of cytotoxicity and antiviral activity of all final compounds in vitro was conducted according to previously reported procedures.[39] In summary, human embryonic kidney (HEK293T) cells maintained in high glucose (25 mM), Dulbecco’s modified Eagle’s medium (DMEM) supplemented with fetal bovine serum (10%), sodium pyruvate (1 mM), L-glutamine (2 mM), HEPES (25 mM), and gentamicin (50 μg/mL) were used for determinations. The cells were maintained in an incubator at 37 °C under 5% CO2 in a humidified atmosphere. For both cytotoxicity and antiviral screening, all compounds were evaluated in duplicate in at least two independent experiments. All final compounds were formulated with human serum albumin (HSA, 5:1 compound to HSA molar ratio) and subsequently diluted with complete DMEM to 200 μM. Fifty microliters of test compound serial dilutions (3-fold) were prepared in 96-well culture plates, after which 50 μL of HEK293T cells (2 × 10^4 cells/well) was added. […] Cytotoxicity was then assessed by quantifying cell viability using the CellTiter 96 Aqueous One Solution Cell Proliferation Assay (Promega, Madison, WI) or resazurin sodium salt (cat# R7017, Merck, Darmstadt, Germany).[61] […] Antiviral activity was then assessed using a single-cycle, nonreplicating, envelope deleted HIV pseudoviral in vitro assay.[62],[63] The assay relies on the introduction of the firefly luciferase gene into HEK293T cells through infection with HIV-like viral particles, containing Reverse Transcriptase (RT) and Integrase (IN) from the HIV-1 subtype C strain MJ4.[64] The expression of the luciferase in the cells is directly proportional to the level of infection by the HIV-like viral particles and can be used to assess the inhibition of HIV-1 RT and IN. To evaluate anti-HIV activity, 3-fold serial dilutions of all final compounds were prepared in 50 μL over the noncytotoxic concentration range (as determined from the cytotoxicity screens described above) in 96-well culture plates. HEK293T cells (2 × 10^4 cells/well) and HIV-like viral particles, standardized to produce a luminescence signal of 1 × 10^6 relative light units (RLUs) in the growth medium only control, were combined, and 50 μL was added to the wells containing serially diluted test compounds. […] The expression of luciferase was subsequently quantified by adding 100 μL of the Bright-Glo Luciferase Assay substrate (Promega, Madison, WI) to each well of the 96-well plates. After incubation at rt for 3 min, luminescence was quantified on the GloMax Explorer Multimode Microplate Reader (Promega, Madison, WI).

HepaRG cells = assay: HepaRG cellular uptake; conditions: for mean prodrug concentration in HepaRG cells: 20 µM
Text: Naturally, due the metabolic complexity of HepaRG cells, we specifically analyzed prodrug cellular uptake and stability, as represented by Cmax and intrinsic clearance (Clint,u) accordingly (Figure 7 and Table 9).
The HepaRG cell line (HPRGC10, Thermo Fisher Scientific) was used to evaluate the cellular permeability and metabolic stability for select final compounds in vitro. The cells were initially thawed with working media composed of HepaRG Thaw, Plate, & General Purpose Medium Supplement (HPRG670), Williams Medium E (100 mL), and GlutaMax (1 mL), all purchased from Thermo Fisher Scientific. […] After the thawing medium was aspirated from each well, the cells were cultured for an additional 6 days with working media consisting of HepaRG Maintenance/Metabolism Medium Supplement (HPRG720), Williams Medium E (500 mL), and GlutaMax (1 mL), all purchased from Thermo Fisher Scientific. Upon completing the 7-day culture period, HepaRG cells were plated in enough wells to allow for duplicate analysis of prodrugs in two independent cellular uptake or metabolic stability experiments. All studied compounds were formulated with human serum albumin (HSA, 5:1 compound to HSA molar ratio) and subsequently diluted to a 20 μM final concentration with assay medium composed of serum-free INVITROGRO HI Medium and TORPEDO Antibiotic Mix purchased from BioIVT. For cellular uptake determinations, the maintenance/metabolism medium was first aspirated from each well, and then the plated cells were spiked with 1.0 mL of test compound stock solution. Subsequently, the plate was incubated at 37 °C under 5% CO2 environment over the desired time course (seven data points/compound). Blank wells not treated with prodrug were included in assay runs as controls and initial time points (0 min). At each time point, the test compound solution was removed from the appropriate wells, and the plated cells were washed with 1.0 mL of DPBS twice. The HepaRG cells were then extracted with 500 μL of cold ISTD solution (1 μM 7-ethoxy-d5-coumarin in 70/30 MeOH/H2O), and the quenched aliquots were centrifuged at 15,000 g for 10 min at 4 °C. […] After obtaining prodrug Cmax and Tmax values from the cellular uptake assay, HepaRG metabolic stability was then assessed. Following the initial 7-day culture procedure, the maintenance/metabolism medium was aspirated from each well, and the plated cells were spiked with 1.0 mL of test compound stock solution. […] The test compound solution was then removed from each well and replaced with untreated dilution medium (i.e., serum-free INVITROGRO HI Medium and TORPEDO Antibiotic Mix), initializing the stability determination. The HepaRG plate was once more incubated at 37 °C under 5% CO2 atmosphere over the desired time course (nine data points/compound), and sample preparation and analysis were handled in identical fashion to cellular uptake experiments.

[2] = Mouse plasma pharmacokinetics after intravenous dose; type: in vivo, male C57BL/6 mice; conditions: i.v. 3 mg/kg
Method: (§1) To compare the in vivo PK profiles to TXL and our previously reported drug lead 1 (Tables S19 and S26),[39] one group of male C57BL/6 mice were administered a single oral dose (p.o., 10 mg/kg) of 2a, 16g, or 16h (refer to Experimental Methods). Additionally, a separate group of mice were given a single intravenous dose (i.v., 3 mg/kg) of each prodrug to obtain plasma clearance (Cl), volume of distribution (Vd), and oral bioavailability data. Blood was sampled at 8 time points over 8 h (i.v.) or 24 h (p.o.) postdose, and plasma was isolated via centrifugation. Tissues (liver, kidney, and brain) were also harvested and homogenized at 3 time points over 24 h after oral dose. The concentrations of prodrug and TFV metabolite in each of these samples was then quantified using LC–MS/MS methodology.
(§2) Healthy male C57BL/6 mice (8–12 weeks old) weighing 20–30 g were procured from Global, India. Three mice were housed in each cage. Temperature and humidity were maintained at 22 ± 3 °C and 30–70%, respectively, and illumination was controlled to provide for 12 h light and 12 h dark cycles. Temperature and humidity were recorded by an autocontrolled data logger system. All animals were provided a laboratory rodent diet (Envigo Research private Ltd., Hyderabad). Reverse osmosis H2O treated with ultraviolet light was provided ad libitum.
(§3) Male mice were divided into two groups (n = 18 total, n = 9 per treatment group, n = 3 per time point, sparse sampling). One group was intravenously administered a solution of 2a, 16g, and 16h in 10% PEG-300, 10% Solutol HS-15, and 80% saline at 3 mg/kg with a dosing volume of 5 mL/kg. The second group was administered a solution of 2a, 16g, and 16h in 10% EtOH and 90% olive oil at 10 mg/kg via oral gavage with a dosing volume of 10 mL/kg.
(§4) Blood samples (approximately 60 μL) were collected from retro-orbital plexus under light isoflurane anesthesia such that the samples were obtained predose, as well as at eight time points post dose: 0.1, 0.25, 0.5, 1, 2, 4, 6, and 8 (i.v.) and 0.25, 0.5, 1, 2, 4, 8, 12, and 24 h (p.o.). Immediately after blood collection, plasma samples were harvested by centrifugation at 4000 rpm and 4 °C for 10 min and stored at −70 °C until LC–MS/MS analysis. Following blood collection from p.o. group, liver, kidney, and brain samples were collected (n = 3 per treatment group per time point) at 1, 4, and 24 h post dose. After isolation, tissue samples were rinsed three times with ice-cold saline and dried with blotting paper. Next, the tissue samples were homogenized using ice-cold PBS (pH = 7.4), and the resulting homogenates were stored below −70 °C until LC-MS/MS analysis. The total homogenate volume was 3 times the brain weight and 5 times the liver and kidney weight.
(§5) Areas under the concentration–time curves (AUC0–8h and AUC0–24h) were calculated via the linear trapezoidal rule[65] using GraphPad Prism v9. Furthermore, terminal elimination rate constants k were determined using linear regression (slope = −k) of the terminal portion of semilog-transformed concentration–time curves (Figures S44, S45, S47, S48, S50, and S51).

Mouse plasma stability = type: in vitro ADME
Method: Human plasma (lithium heparin (LiHep) mixed, gender pooled, 0.2 μm filtered) and mouse plasma (BALB/C, LiHep mixed, male pooled, 0.2 μm filtered) were purchased from BioIVT. Procaine (Sigma-Aldrich) served as a positive control for both human and mouse plasma experiments. […] Next, the human or mouse plasma (994 μL) was aliquoted into 1.5 mL Eppendorf tubes with duplicates (reactions A and B) being prepared for each compound. The plasma was then incubated at 37 °C for 10 min. […] This procedure provided duplicate experiments with a final volume of 1000 μL (<0.2% organic solvent content) and a final test compound concentration of 3 μM. Aliquots (100 μL) were removed from each reaction mixture at 0, 30, 60, 120, and 240 min time intervals and quenched with 150 μL of cold ISTD solution (2 μM 7-ethoxy-d5-coumarin in MeOH). […] The positive control reaction was conducted at a final volume of 1000 μL for a single run of each time point. Finally, the negative control experiment was conducted with test compounds in Dulbecco’s phosphate buffered saline without calcium and magnesium (DPBS, Fisher Scientific, 143 μL) and analyzed at the 240 min time point.
Plasma Stability Assay Setup Example
Test Compound: 994 µL Human or Mouse Plasma + 6.0 µL TC (500 µM, Vial A).
994 µL Human or Mouse Plasma + 6.0 µL TC (500 µM, Vial B).
Positive Control: 994 µL Human or Mouse Plasma + 6.0 µL Procaine (500 µM).
Negative Control: 142 µL DPBS (1X, pH 7.1-7.3) + 0.9 µL TC (500 µM).
Quenching Mixture: 150 µL MeOH with ISTD (2 µM d5-7-ethoxycoumarin).
Final Volume After Quenching: 250 µL (100 µL from reaction mixture and 150 µL quencher
solution; ISTD final concentration of 1.2 µM). […]

[3] = Mouse tissue (liver, kidney, brain) pharmacokinetics after oral dose; type: in vivo, male C57BL/6 mice; conditions: for AUC(0-t) at 24 h: read-out: AUC0–24h
Method: as §1, §2, §3, §4, §5

[4] = male, C57BL/6, mouse, iv, prodrug
[5] = male, C57BL/6, mouse, brain, po, p.o. 10 mg/kg, read-out: mean prodrug concentration in brain
[6] = male, C57BL/6, mouse, kidney, po, p.o. 10 mg/kg, read-out: mean prodrug concentration in kidney
[7] = male, C57BL/6, mouse, liver, po, p.o. 10 mg/kg, read-out: mean prodrug concentration in liver
[8] = male, C57BL/6, mouse, po, brain, prodrug, p.o. 10 mg/kg
[9] = male, C57BL/6, mouse, po, kidney, prodrug, p.o. 10 mg/kg
[10] = male, C57BL/6, mouse, po, liver, prodrug, p.o. 10 mg/kg

C[C@H](Cn1cnc2c(N)ncnc21)OCP(=O)(O)OCCCSCCCCCCCCCCCCC1CCCCC1.N [16h]
CC50 at 48 h [1]: 48 µM
mean prodrug concentration in HepaRG cells (HepaRG cells; 0.5 h): 896.16 ng/mL
mean prodrug concentration in HepaRG cells (HepaRG cells; 1 h): 911.53 ng/mL
mean prodrug concentration in HepaRG cells (HepaRG cells; 2 h): 1178.12 ng/mL
mean prodrug concentration in HepaRG cells (HepaRG cells; 3 h): 1412.37 ng/mL
mean prodrug concentration in HepaRG cells (HepaRG cells; 5 h): 1533.37 ng/mL
mean prodrug concentration in HepaRG cells (HepaRG cells; 7 h): 1616.17 ng/mL
HepaRG Cmax (HepaRG cells; 20 μM, HSA formulation 5:1, recorded after 3 h incubation): 1412.4 ± 1.5 ng/mL
k (terminal elimination rate constant) ([2]; 3 mg/kg): 0.5743 and 0.574
Vd at 8 h ([2]; male, C57BL/6, mouse, iv): 8.97 L/kg
clearance ([2]; male, C57BL/6, mouse, iv): 85.8 mL/min/kg
half-life at 8 h ([2]; male, C57BL/6, mouse, iv): 72.6 min
concentration at 0.1 h ([2]; male, C57BL/6, mouse, iv, 0.1 h, read-out: mean prodrug concentration in plasma): 2380 ng/mL
concentration at 0.25 h ([2]; male, C57BL/6, mouse, iv, 0.25 h, read-out: mean prodrug concentration in plasma): 522 ng/mL
concentration at 0.5 h ([2]; male, C57BL/6, mouse, iv, 0.5 h, read-out: mean prodrug concentration in plasma): 406 ng/mL
concentration at 1 h ([2]; male, C57BL/6, mouse, iv, 1 h, read-out: mean prodrug concentration in plasma): 127 ng/mL
concentration at 2 h ([2]; male, C57BL/6, mouse, iv, 2 h, read-out: mean prodrug concentration in plasma): 17.4 ng/mL
concentration at 4 h ([2]; male, C57BL/6, mouse, iv, 4 h, read-out: mean prodrug concentration in plasma): 8.98 ng/mL
concentration at 6 h ([2]; male, C57BL/6, mouse, iv, 6 h, read-out: mean prodrug concentration in plasma): 3.65 ng/mL
concentration at 8 h ([2]; male, C57BL/6, mouse, iv, 8 h, read-out: mean prodrug concentration in plasma): 1.41 ng/mL
Cmax at 8 h [2, 4]: 2380 ng/mL
Tmax at 8 h [2, 4]: 6 min
AUC(0-t) at 8 h ([2]; male, C57BL/6, mouse, iv, prodrug, read-out: AUC0–8h): 583 ng·h/mL
mouse plasma t1/2 (Mouse plasma stability; 3 μM, 37 °C, 240 min course): > 240 min
remaining at 4 h, 3 μM (Mouse plasma stability; male, BALB/C, mouse, plasma, relative percent remaining at 240 min): 71%
half-life at 3 μM (Mouse plasma stability; male, BALB/C, mouse, plasma, read-out: in vitro mouse plasma stability t1/2): > 240 min
TFV in brain tissue ([3]; brain, 1, 4 and 24 h after p.o. 10 mg/kg of prodrug, LLOQ 4.84 ng/mL (9.67 for 16h)): BLQ
concentration at 1 h [3, 5]: 16.1 ng/mL
concentration at 4 h [3, 5]: 8.39 ng/mL
concentration at 1 h [3, 6]: 279 ng/mL
concentration at 4 h [3, 6]: 795 ng/mL
concentration at 24 h ([3]; male, C57BL/6, mouse, kidney, po, p.o. 10 mg/kg, 24 h, read-out: mean prodrug concentration in kidney): 123 ng/mL
concentration at 1 h [3, 7]: 1540 ng/mL
concentration at 4 h [3, 7]: 2150 ng/mL
concentration at 24 h ([3]; male, C57BL/6, mouse, liver, po, p.o. 10 mg/kg, 24 h, read-out: mean prodrug concentration in liver): 32.4 ng/mL
Cmax at 24 h [3, 8]: 16.2 ng/mL
Tmax at 24 h [3, 8]: 1 h
AUC(0-t) at 24 h [3, 8]: 36.8 ng·h/mL
Cmax at 24 h [3, 9]: 795 ng/mL
AUC(0-t) at 24 h [3, 9]: 10800 ng·h/mL
Cmax at 24 h [3, 10]: 2150 ng/mL
AUC(0-t) at 24 h [3, 10]: 27300 ng·h/mL
mean prodrug concentration in brain ([3]; p.o. 10 mg/kg, 24 h, BLQ = below limit of quantitation): BLQ
